Common to all, as to format: cell-based
One experiment has as its system JAG1. Put plainly: RNA-seq of JAG1 expression in compound-treated primary human hepatocytes. Conditions: for JAG1 Fold Change (Log2): primary human hepatocytes; for Significant modulation of JAG1 (in words): summary of Table 6. The procedure:
(§1) Human hepatocytes were obtained from two donors from Massachusetts General Hospital, namely MGH54 and MGH63, and one donor from Lonza, namely HUM4111B. Cryopreserved hepatocytes were cultured in plating media for 16 hours, transferred to maintenance media for 4 hours. Cultured on serum-free media for 2 hours, then a compound was added. The hepatocytes were maintained on the serum-free media for 16 hours prior to gene expression analysis. Primary human hepatocytes were stored in the vapor phase of a liquid nitrogen freezer (about -130° C.). Human hepatocytes cultured as described above were plated in 24-well format, adding 375,000 cells per well in a volume of 500 ul plating medium. Four hours before treatment, cells were washed with PBS and the medium was changed to either: fresh maintenance medium (complete) or modified maintenance medium. Compound stocks were prepared at 1000× final concentration and added in a 2-step dilution to the medium to reduce risk of a compound precipitating out of solution when added to the cells, and to ensure reasonable pipetting volumes. […] The plate was mixed by carefully swirling and after all wells were treated and returned to the incubator overnight. If desired, separate plates/wells were treated with vehicle-only controls and/or positive controls. If using multi-well plates, controls were included on each plate. After about 18 hours, cells were harvested for further analysis, e.g., ChIP-seq, RNA-seq, ATAC-seq, etc. This protocol is a modified version of the following protocols: MagMAX mirVana Total RNA Isolation Kit User Guide (Applied Biosystems #MAN0011131 Rev B.0), NEBNext Poly(A) mRNA Magnetic Isolation Module ([…]), and NEBNext Ultra Directional RNA Library Prep Kit for Illumina ([…]) (New England Biosystems #E74901). […] Two hundred μl of Lysis Binding Mix was used per well of the multiwell plate containing adherent cells (usually a 24-well plate). For mRNA isolation and library prep, the NEBNext Poly(A) mRNA Magnetic Isolation Module and Directional Prep kit was used. RNA isolated from cells above was quantified, and prepared in […] of each sample in 50 μl of nuclease-free water. This protocol may be run in microfuge tubes or in a 96-well plate. […] Genomic alignments were converted to transcriptome alignments based on reference transcript annotations from the Human GENCODE Gene Set release 24 (Harrow et al., Genome Res. […] Standard QC were applied (read integrity, mapping statistics, library complexity, fragment bias) to remove unsatisfactory samples. Differential gene expression was computed using the negative binomial model implemented by DESeq2 version 1.16.1 (Love et al., Genome Biol. (2014) 15(12):550). […] RNA-seq signals were also normalized by read depth and visualized using the UCSC browser. To identify small molecules that modulate target gene expression, primary human hepatocytes were prepared as a monoculture, and at least one small molecule compound was applied to the cells. RNA-seq was performed to determine the effects of the compounds on the expression of the target genes in hepatocytes. Fold change was calculated by dividing the level of expression in the cell system that had been perturbed by the level of expression in an unperturbed system.

For the next experiment, the system named is NOTCH2. Put plainly: RNA-seq of NOTCH2 expression in compound-treated primary human hepatocytes. Conditions: primary human hepatocytes. The procedure:
as §1

Another experiment relates to LECT2. Put plainly: RNA-seq of LECT2 expression in compound-treated primary human hepatocytes. The procedure:
Human hepatocytes were obtained from two donors from Massachusetts General Hospital, namely MGH54 and MGH63, and one donor from Lonza, namely HUM4111B. Cryopreserved hepatocytes were cultured in plating media for 16 hours, transferred to maintenance media for 4 hours. Cultured on serum-free media for 2 hours, then a compound was added. The hepatocytes were maintained on the serum-free media for 16 hours prior to gene expression analysis. Primary human hepatocytes were stored in the vapor phase of a liquid nitrogen freezer (about −130° C.).
Human hepatocytes cultured as described above were plated in 24-well format, adding 375,000 cells per well in a volume of 500 ul plating medium. Four hours before treatment, cells were washed with PBS and the medium was changed to either: fresh maintenance medium (complete) or modified maintenance medium.
Compound stocks were prepared at 1000× final concentration and added in a 2-step dilution to the medium to reduce risk of a compound precipitating out of solution when added to the cells, and to ensure reasonable pipetting volumes. One at a time, each compound was first diluted 10-fold in warm (about 37° C.) modified maintenance medium (initial dilution=ID), mixed by vortexing, and the ID was diluted 100-fold into the cell culture (e.g. 5.1 ul into 1 well of a 24-well plate containing 0.5 mL medium). The plate was mixed by carefully swirling and after all wells were treated and returned to the incubator overnight. If desired, separate plates/wells were treated with vehicle-only controls and/or positive controls. If using multi-well plates, controls were included on each plate. After about 18 hours, cells were harvested for further analysis, e.g., ChIP-seq, RNA-seq, ATAC-seq, etc.
This protocol is a modified version of the following protocols: MagMAX mirVana Total RNA Isolation Kit User Guide (Applied Biosystems #MAN0011131 Rev B.0), NEBNext Poly(A) mRNA Magnetic Isolation Module (E7490), and NEBNext Ultra Directional RNA Library Prep Kit for Illumina (E7420) (New England Biosystems #E74901).
The MagMAX mirVana kit instructions (the section titled “Isolate RNA from cells” on pages 14-17) were used for isolation of total RNA from cells in culture. Two hundred μl of Lysis Binding Mix was used per well of the multiwell plate containing adherent cells (usually a 24-well plate).
For mRNA isolation and library prep, the NEBNext Poly(A) mRNA Magnetic Isolation Module and Directional Prep kit was used. RNA isolated from cells above was quantified, and prepared in […] of each sample in 50 μl of nuclease-free water. This protocol may be run in microfuge tubes or in a 96-well plate.
Standard QC were applied (read integrity, mapping statistics, library complexity, fragment bias) to remove unsatisfactory samples. […] Log 2 fold change and significance values were computed using PME count data (with replicates explicitly modeled versus pan-experiment controls), median ratio normalized, using maximum likelihood estimation rather than maximum a posteriori, and disabling the use of Cook's distance cutoff when determining acceptable adjusted p-values. […] RNA-seq signals were also normalized by read depth and visualized using the UCSC browser.
To identify small molecules that modulate target gene expression, primary human hepatocytes were prepared as a monoculture, and at least one small molecule compound was applied to the cells.
RNA-seq was performed to determine the effects of the compounds on the expression of the target genes in hepatocytes. Fold change was calculated by dividing the level of expression in the cell system that had been perturbed by the level of expression in an unperturbed system. Changes in expression having a p-value ≤0.05 were considered significant.
Significance was defined as an FPKM ≥1, a log 2(fold change) ≥0.5, and a q-value of ≤0.05 for all targets except for CPOX.

The test system of experiment [1] is SERPINC1 mRNA. The experiment in a line: Quantitative PCR of SERPINC1 mRNA in primary human hepatocytes (Lonza Hu4282) treated with compounds. The following applies: quantitative PCR.
Experiment [2] relates to SERPINC1 mRNA. Put plainly: Quantitative PCR of SERPINC1 mRNA in mouse hepatocytes treated with compounds. Conditions: for SERPINC1 mRNA, Mouse Heps, 1 uM: compound 1 uM; for SERPINC1 mRNA, Mouse Heps, 10 uM: compound 10 uM. As for the experimental part:
Samples were amplified using Taqman probes from ThermoFisher.
In some examples, RQ Min and RQ Max values are also reported. RQ Min and RQ Max are the minimum and maximum relative levels of gene expression in the test samples, respectively. They were calculated using the confidence level set in the analysis settings and the confidence level was set to one standard deviation (SD). These values were calculated using standard deviation as follows: […].
Compounds were tested in hepatocytes for upregulation of SERPINC1 mRNA for identification of potential treatments of SERPINC1/AT III deficiency.

The next experiment concerns ANGPTL3. Put plainly: RNA-seq of ANGPTL3 expression in compound-treated primary human hepatocytes. The following applies: additional compounds (Table 13), linear fold change. An outline of the steps:
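Cryopreserved primary human hepatocytes from three donors, plated at 375,000 cells/well, switched to complete or modified maintenance medium, then dosed with compound (stocks at 1000× final) for about 18 h. Poly(A) mRNA was sequenced directionally, mapped to GRCh38 with STAR, and gene-level abundance (counts, FPKM) estimated with RSEM against GENCODE 24.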

Data on 7 molecules can be found in patent US20210161997A1, “TREATING DISEASES VIA TARGETED MODULATION OF GENE SIGNALING NETWORKS” (Camp4 Therapeutics Corporation, priority 2018, published 2021).

For the molecule `[H]/N=C(/N)N/C(=N/[H])NCCc1ccccc1` [Phenformin], in the experiment on JAG1, the “JAG1 Fold Change (Log2)” value is 1.14 Log2 and the “Significant modulation of JAG1 (in words)” value (“Significant modulation” below) is on record as “significantly modulate only JAG1”. In the experiment with NOTCH2, the “NOTCH2 Fold Change (Log2)” value amounted to 0 Log2.
Consider `CCCC(=O)O[C@@H]1[C@@H](C)[C@@]2(O)[C@@H](C=C(CO)C[C@]3(O)C(=O)C(C)=C[C@@H]23)[C@@H]2C(C)(C)[C@]12OC(=O)CCC` [Phorbol 12,13-dibutyrate], for which the “LECT2 Fold Change (Log2)” value in the experiment with LECT2 is recorded as −0.65 Log2.
`CO[C@H]1/C=C/O[C@@]2(C)Oc3c(C)c(O)c4c(O)c(c(/C=N/N5CCN(C)CC5)c(O)c4c3C2=O)NC(=O)/C(C)=C\C=C\[C@H](C)[C@H](O)[C@@H](C)[C@@H](O)[C@@H](C)[C@H](OC(C)=O)[C@@H]1C` [Rifampicin]: the “LECT2 Fold Change (Log2)” value with LECT2 is on record as −0.88 Log2.
Turning to `CN1C/C=C/CCOc2cccc(c2)-c2ccnc(n2)Nc2cccc(c2)C1` [SB1317/TG02], the “SERPINC1 mRNA, Lonza Hu4282, 1 uM” value with SERPINC1 mRNA [1] (primary human hepatocytes Lonza Hu4282, compound 1 uM) was found to be 1.9. Moreover, in the experiment on SERPINC1 mRNA [1] (primary human hepatocytes Lonza Hu4282, compound 10 uM), the “SERPINC1 mRNA, Lonza Hu4282, 10 uM” value amounted to 2.28. In the experiment on SERPINC1 mRNA [2], the “SERPINC1 mRNA, Mouse Heps, 1 uM” value is given as 1.13 and the “SERPINC1 mRNA, Mouse Heps, 10 uM” value is recorded as 1.85.
For the molecule `COc1cccc2cc(-c3nc([C@H]4CC[C@H](C(=O)O)CC4)n4ncnc(N)c34)[nH]c12` [compound 308 (OSI-027)], the “SERPINC1 mRNA, H8290, 1 uM” value with SERPINC1 mRNA [1] (hepatocytes H8290, compound 1 uM) turned out to be 1.7. Besides, in the experiment on SERPINC1 mRNA [1] (hepatocytes H8290, compound 10 uM), the “SERPINC1 mRNA, H8290, 10 uM” value is given as 1.9. In addition, in the experiment on SERPINC1 mRNA [2], the “SERPINC1 mRNA, Mouse Heps, 1 uM” value was 1.53 and the “SERPINC1 mRNA, Mouse Heps, 10 uM” value stood at 2.36.

B1: GDF2 (BMP9): TGF-beta activator (protein, UniProt Q9UK05 320-429, looked up)
Growth/differentiation factor …: SAGAGSHCQKTSLRVNFEDIGWDSWIIAPKEYEAYECKGGCFFPLADDVTPTKHAIVQTLVHLKFPTKVGKACCVPTKLSPISVLYKDDMGVPTLKYHYEGMSVAECGCR
B1: in the experiment on JAG1, the “JAG1 Fold Change (Log2)” value came out at 1.03 Log2 and the “Significant modulation” value is given as “significantly modulate only JAG1”. Besides, the “NOTCH2 Fold Change (Log2)” value with NOTCH2 was found to be 0 Log2.

B2: BMP4: TGF-beta activator (protein, UniProt P12644 293-408, looked up)
Bone morphogenetic protein 4: SPKHHSQRARKKNKNCRRHSLYVDFSDVGWNDWIVAPPGYQAFYCHGDCPFPLADHLNSTNHAIVQTLVNSVNSSIPKACCVPTELSAISMLYLDEYDKVVLKNYQEMVVEGCGCR
With B2, in the experiment with JAG1, the “JAG1 Fold Change (Log2)” value was determined as 0.63 Log2 and the “Significant modulation” value was “significantly modulate only JAG1”. Besides, the “NOTCH2 Fold Change (Log2)” value in the experiment on NOTCH2 is 0 Log2. In addition, in the experiment with ANGPTL3, the “ANGPTL3-LINEAR FOLD CHANGE” value is listed as 0.3463.
